Legend:
Format in all cases: in vivo
[1] = test system: blackgrass (Alopecurus myosuroides); test: Test C pre-/postemergence greenhouse test, plant response rating 0-100; conditions: Postemergence; for Plant response rating, Blackgrass: scale 0 to 100
Outline: (§1)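 Greenhouse test. Preemergence: seed in loam:sand, sprayed with formulated chemical (solvent + surfactant). Postemergence: 1–4 leaf plants, 2–18 cm, peat-based potting medium. Hold 13–15 d; score visually, 0 (none) to 100 (complete control); dash = not tested.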

[2] = test system: galium (catchweed bedstraw, Galium aparine); test: as above; conditions: Postemergence; for Plant response rating, Galium: scale 0 to 100
Outline: as §1

[3] = test system: giant foxtail (Setaria faberii); test: as above; conditions: Postemergence; for Plant response rating, Foxtail, Giant: scale 0 to 100
Outline: as §1

[4] = test system: johnsongrass (Sorghum halepense); test: as above; conditions: Postemergence; for Plant response rating, Johnsongrass: scale 0 to 100
Outline: as §1

[5] = test system: lambsquarters (Chenopodium album); test: as above; conditions: Postemergence; for Plant response rating, Lambsquarters: scale 0 to 100
Outline: as §1

[6] = test system: large (Lg) crabgrass (Digitaria sanguinalis); test: as above; conditions: Postemergence; for Plant response rating, Crabgrass, Large: scale 0 to 100
Outline: as §1

soybean (Glycine max) = test: as above; conditions: Postemergence; for Plant response rating, Soybean: scale 0 to 100
Outline: as §1

[7] = test system: winter wheat (Triticum aestivum); test: as above; conditions: Postemergence; for Plant response rating, Wheat: scale 0 to 100
Outline: as §1

[8] = test system: yellow nutsedge (Cyperus esculentus); test: as above; conditions: Postemergence; for Plant response rating, Nutsedge, Yellow: scale 0 to 100
Outline: as §1

[9] = test system: chickweed (common chickweed, Stellaria media); test: Test C postemergence greenhouse test, plant response rating 0-100; conditions: for Plant response rating, Chickweed: scale 0 to 100
Source text: (§2) At the same time, plants selected from these crop and weed species and also winter barley (Hordeum vulgare), bermudagrass (Cynodon dactylon), downy bromegrass (Bromus tectorum), canarygrass (Phalaris minor), cocklebur (common cocklebur, Xanthium strumarium), woolly cupgrass (Eriochloa villosa), deadnettle (henbit deadnettle, Lamium amplexicaule), green foxtail (Setaria viridis), goosegrass (Eleusine indica), surinam grass (Brachiaria decumbens), windgrass (Apera spica-venti), chickweed (common chickweed, Stellaria media), kochia (Kochia scoparia), and wild oat (Avena fatua), were planted in pots containing Redi-Earth® planting medium (Scotts Company, 14111 Scottslawn Road, Marysville, Ohio 43041) comprising spaghnum peat moss, vermiculite, wetting agent and starter nutrients and treated with postemergence applications of test chemicals formulated in the same manner. Plants ranged in height from 2 to 18 cm (1- to 4-leaf stage) for postemergence treatments. Treated plants and controls were maintained in a greenhouse for 13 to 15 days, after which time all species were compared to controls and visually evaluated. Plant response ratings, summarized in Table C, are based on a scale of 0 to 100 where 0 is no effect and 100 is complete control. A dash (-) response means no test result.

kochia (Kochia scoparia) = test: as above; conditions: for Plant response rating, Kochia: scale 0 to 100
Source text: as §2

wild oat (Avena fatua) = test: as above; conditions: for Plant response rating, Oat, Wild: scale 0 to 100
Source text: as §2

Cn1cc(C(=O)c2ccccc2)c(-c2cc(Br)cc(Br)c2)n1 [Compound 53]
60: Plant response rating, Kochia (kochia (Kochia scoparia); 250 g ai/ha) | Plant response rating, Kochia (kochia (Kochia scoparia); 500 g ai/ha)
0: Plant response rating (0 to 100), Blackgrass ([1]; 62 g ai/ha) | Plant response rating (0 to 100), Blackgrass ([1]; 125 g ai/ha) | Plant response rating, Blackgrass ([1]; 250 g ai/ha) | Plant response rating, Blackgrass ([1]; 500 g ai/ha) | Plant response rating (0 to 100), Galium ([2]; 62 g ai/ha) | Plant response rating (0 to 100), Galium ([2]; 125 g ai/ha) | Plant response rating, Galium ([2]; 250 g ai/ha) | Plant response rating (0 to 100), Foxtail, Giant ([3]; 62 g ai/ha) | Plant response rating (0 to 100), Foxtail, Giant ([3]; 125 g ai/ha) | Plant response rating (0 to 100), Johnsongrass ([4]; 62 g ai/ha) | Plant response rating (0 to 100), Johnsongrass ([4]; 125 g ai/ha) | Plant response rating, Johnsongrass ([4]; 250 g ai/ha) | Plant response rating, Johnsongrass ([4]; 500 g ai/ha) | Plant response rating (0 to 100), Crabgrass, Large ([6]; 62 g ai/ha) | Plant response rating (0 to 100), Crabgrass, Large ([6]; 125 g ai/ha) | Plant response rating, Crabgrass, Large ([6]; 250 g ai/ha) | Plant response rating, Crabgrass, Large ([6]; 500 g ai/ha) | Plant response rating (0 to 100), Soybean (soybean (Glycine max); 62 g ai/ha) | Plant response rating (0 to 100), Soybean (soybean (Glycine max); 125 g ai/ha) | Plant response rating, Soybean (soybean (Glycine max); 250 g ai/ha) | Plant response rating (0 to 100), Wheat ([7]; 62 g ai/ha) | Plant response rating (0 to 100), Wheat ([7]; 125 g ai/ha) | Plant response rating, Wheat ([7]; 250 g ai/ha) | Plant response rating, Wheat ([7]; 500 g ai/ha) | Plant response rating (0 to 100), Nutsedge, Yellow ([8]; 62 g ai/ha) | Plant response rating (0 to 100), Nutsedge, Yellow ([8]; 125 g ai/ha) | Plant response rating, Nutsedge, Yellow ([8]; 250 g ai/ha) | Plant response rating, Nutsedge, Yellow ([8]; 500 g ai/ha) | Plant response rating (0 to 100), Oat, Wild (wild oat (Avena fatua); 62 g ai/ha) | Plant response rating (0 to 100), Oat, Wild (wild oat (Avena fatua); 125 g ai/ha) | Plant response rating, Oat, Wild (wild oat (Avena fatua); 250 g ai/ha) | Plant response rating, Oat, Wild (wild oat (Avena fatua); 500 g ai/ha)
10: Plant response rating, Galium ([2]; 500 g ai/ha) | Plant response rating, Foxtail, Giant ([3]; 250 g ai/ha) | Plant response rating, Foxtail, Giant ([3]; 500 g ai/ha)
100: Plant response rating, Lambsquarters ([5]; 500 g ai/ha) | Plant response rating, Chickweed ([9]; 250 g ai/ha) | Plant response rating, Chickweed ([9]; 500 g ai/ha)
35: Plant response rating, Lambsquarters ([5]; 250 g ai/ha)
30: Plant response rating (0 to 100), Lambsquarters ([5]; 125 g ai/ha)
45: Plant response rating (0 to 100), Kochia (kochia (Kochia scoparia); 125 g ai/ha)
50: Plant response rating (0 to 100), Chickweed ([9]; 62 g ai/ha) | Plant response rating (0 to 100), Chickweed ([9]; 125 g ai/ha)
5: Plant response rating, Soybean (soybean (Glycine max); 500 g ai/ha)
25: Plant response rating (0 to 100), Kochia (kochia (Kochia scoparia); 62 g ai/ha)

Fc1ccccc1NN=C(c1ccccc1)c1c[nH]nc1-c1cc(Cl)cc(Cl)c1 [Compound 57]
100: Plant response rating (0 to 100), Lambsquarters ([5]; 125 g ai/ha) | Plant response rating (0 to 100), Chickweed ([9]; 62 g ai/ha) | Plant response rating (0 to 100), Chickweed ([9]; 125 g ai/ha) | Plant response rating, Chickweed ([9]; 250 g ai/ha)
0: Plant response rating (0 to 100), Blackgrass ([1]; 31 g ai/ha) | Plant response rating (0 to 100), Blackgrass ([1]; 62 g ai/ha) | Plant response rating (0 to 100), Blackgrass ([1]; 125 g ai/ha) | Plant response rating, Blackgrass ([1]; 250 g ai/ha) | Plant response rating (0 to 100), Galium ([2]; 31 g ai/ha) | Plant response rating (0 to 100), Galium ([2]; 62 g ai/ha) | Plant response rating (0 to 100), Galium ([2]; 125 g ai/ha) | Plant response rating, Galium ([2]; 250 g ai/ha) | Plant response rating (0 to 100), Foxtail, Giant ([3]; 31 g ai/ha) | Plant response rating (0 to 100), Foxtail, Giant ([3]; 62 g ai/ha) | Plant response rating (0 to 100), Foxtail, Giant ([3]; 125 g ai/ha) | Plant response rating (0 to 100), Johnsongrass ([4]; 62 g ai/ha) | Plant response rating (0 to 100), Johnsongrass ([4]; 125 g ai/ha) | Plant response rating, Johnsongrass ([4]; 250 g ai/ha) | Plant response rating (0 to 100), Crabgrass, Large ([6]; 31 g ai/ha) | Plant response rating (0 to 100), Crabgrass, Large ([6]; 62 g ai/ha) | Plant response rating (0 to 100), Crabgrass, Large ([6]; 125 g ai/ha) | Plant response rating (0 to 100), Soybean (soybean (Glycine max); 62 g ai/ha) | Plant response rating (0 to 100), Soybean (soybean (Glycine max); 125 g ai/ha) | Plant response rating, Soybean (soybean (Glycine max); 250 g ai/ha) | Plant response rating (0 to 100), Wheat ([7]; 62 g ai/ha) | Plant response rating (0 to 100), Wheat ([7]; 125 g ai/ha) | Plant response rating, Wheat ([7]; 250 g ai/ha) | Plant response rating (0 to 100), Nutsedge, Yellow ([8]; 62 g ai/ha) | Plant response rating (0 to 100), Nutsedge, Yellow ([8]; 125 g ai/ha) | Plant response rating (0 to 100), Oat, Wild (wild oat (Avena fatua); 62 g ai/ha) | Plant response rating (0 to 100), Oat, Wild (wild oat (Avena fatua); 125 g ai/ha) | Plant response rating, Oat, Wild (wild oat (Avena fatua); 250 g ai/ha)
5: Plant response rating, Foxtail, Giant ([3]; 250 g ai/ha) | Plant response rating, Crabgrass, Large ([6]; 250 g ai/ha) | Plant response rating, Nutsedge, Yellow ([8]; 250 g ai/ha)
65: Plant response rating (0 to 100), Kochia (kochia (Kochia scoparia); 62 g ai/ha) | Plant response rating (0 to 100), Kochia (kochia (Kochia scoparia); 125 g ai/ha)
60: Plant response rating (0 to 100), Lambsquarters ([5]; 62 g ai/ha) | Plant response rating (0 to 100), Chickweed ([9]; 31 g ai/ha)
80: Plant response rating, Kochia (kochia (Kochia scoparia); 250 g ai/ha)

Clc1cc(Cl)cc(-c2n[nH]cc2C(=NNc2ccccc2Cl)c2ccccc2)c1 [Compound 66]
5: Plant response rating, Galium ([2]; 500 g ai/ha) | Plant response rating, Soybean (soybean (Glycine max); 500 g ai/ha)
60: Plant response rating (0 to 100), Kochia (kochia (Kochia scoparia); 62 g ai/ha)
50: Plant response rating (0 to 100), Lambsquarters ([5]; 125 g ai/ha)
90: Plant response rating, Lambsquarters ([5]; 250 g ai/ha) | Plant response rating, Lambsquarters ([5]; 500 g ai/ha)
95: Plant response rating, Kochia (kochia (Kochia scoparia); 500 g ai/ha)
40: Plant response rating (0 to 100), Lambsquarters ([5]; 62 g ai/ha)
75: Plant response rating, Kochia (kochia (Kochia scoparia); 250 g ai/ha)
0: Plant response rating (0 to 100), Blackgrass ([1]; 62 g ai/ha) | Plant response rating (0 to 100), Blackgrass ([1]; 125 g ai/ha) | Plant response rating, Blackgrass ([1]; 250 g ai/ha) | Plant response rating, Blackgrass ([1]; 500 g ai/ha) | Plant response rating (0 to 100), Galium ([2]; 62 g ai/ha) | Plant response rating (0 to 100), Galium ([2]; 125 g ai/ha) | Plant response rating, Galium ([2]; 250 g ai/ha) | Plant response rating (0 to 100), Foxtail, Giant ([3]; 62 g ai/ha) | Plant response rating (0 to 100), Foxtail, Giant ([3]; 125 g ai/ha) | Plant response rating, Foxtail, Giant ([3]; 250 g ai/ha) | Plant response rating, Foxtail, Giant ([3]; 500 g ai/ha) | Plant response rating (0 to 100), Johnsongrass ([4]; 62 g ai/ha) | Plant response rating (0 to 100), Johnsongrass ([4]; 125 g ai/ha) | Plant response rating, Johnsongrass ([4]; 250 g ai/ha) | Plant response rating, Johnsongrass ([4]; 500 g ai/ha) | Plant response rating (0 to 100), Crabgrass, Large ([6]; 62 g ai/ha) | Plant response rating (0 to 100), Crabgrass, Large ([6]; 125 g ai/ha) | Plant response rating, Crabgrass, Large ([6]; 250 g ai/ha) | Plant response rating, Crabgrass, Large ([6]; 500 g ai/ha) | Plant response rating (0 to 100), Soybean (soybean (Glycine max); 62 g ai/ha) | Plant response rating (0 to 100), Soybean (soybean (Glycine max); 125 g ai/ha) | Plant response rating, Soybean (soybean (Glycine max); 250 g ai/ha) | Plant response rating (0 to 100), Wheat ([7]; 62 g ai/ha) | Plant response rating (0 to 100), Wheat ([7]; 125 g ai/ha) | Plant response rating, Wheat ([7]; 250 g ai/ha) | Plant response rating, Wheat ([7]; 500 g ai/ha) | Plant response rating (0 to 100), Nutsedge, Yellow ([8]; 62 g ai/ha) | Plant response rating (0 to 100), Nutsedge, Yellow ([8]; 125 g ai/ha) | Plant response rating, Nutsedge, Yellow ([8]; 250 g ai/ha) | Plant response rating, Nutsedge, Yellow ([8]; 500 g ai/ha) | Plant response rating (0 to 100), Oat, Wild (wild oat (Avena fatua); 62 g ai/ha) | Plant response rating (0 to 100), Oat, Wild (wild oat (Avena fatua); 125 g ai/ha) | Plant response rating, Oat, Wild (wild oat (Avena fatua); 250 g ai/ha) | Plant response rating, Oat, Wild (wild oat (Avena fatua); 500 g ai/ha)
100: Plant response rating (0 to 100), Chickweed ([9]; 62 g ai/ha) | Plant response rating (0 to 100), Chickweed ([9]; 125 g ai/ha) | Plant response rating, Chickweed ([9]; 250 g ai/ha) | Plant response rating, Chickweed ([9]; 500 g ai/ha)
65: Plant response rating (0 to 100), Kochia (kochia (Kochia scoparia); 125 g ai/ha)
